Source: patent US9207296B2, “Methods and apparatus for pasadena hyperpolarization” (Huntington Medical Research Institutes, priority 2008, dated 2015)
“And” between values parts separate entries of the source, which are not always exact repeats. Equal entries are not always repeated. Where two headings read alike, the source gives them in different places.

What was measured:
[1] = for 13C signal enhancement (nascent): at 4.7 T, relative to thermal polarization; for 13C polarization achieved (maximal): best value after calibration
Protocol: A number of strategies have been employed to quantify the extent of hyperpolarization [Association N.E.M. Determination of signal-to-noise ratio (SNR) in diagnostic magnetic resonance imaging. NEMA Standards, Publication MS 1-2001 (2001)]. In the present application, the following convention was applied. The signal enhancement (ηobserved) achieved by hyperpolarization was quantified in respect to the signal of a thermally polarized sample (100% ethanol, 188 mM of natural abundance ^13C at each site (Eq. 7)). The signal intensities were determined by numerical integration (xWINNMR software, Bruker Biospin, Germany)
[formula] (where IHP, Iref, CHP and Cref are integral intensities and molar concentrations of hyperpolarized and reference samples, respectively).
The decay of ^13C polarization caused by longitudinal relaxation (T1) of the hyperpolarized sample during the delivery to the detection system was determined (FIG. 15). This allows for the determination of the nascent signal enhancement (Eq. 8), and nascent level of achieved polarization (Eq. 9).
Unless otherwise indicated, PHP^t=0 and η^t=0 are reported in the work presented, using a ^13C polarization of PBoltzmann=0.00041% or 4.1 ppm at 298K and 4.7 T. T1 values for the […] reagent concerned in calibration and quality assurance (“QA”) were determined directly. A series of small angle (α≈8°) FID experiments was employed to probe the decay of the magnetization of the hyperpolarized agents (small excitation angle approximation, SEA). The T1 values were extracted by the fit of Equation 10 (Eq. 10) to the data points, taking into account the loss of magnetization caused by the excitation pulses.
Delivering hyperpolarized sample and triggered detection in the NMR scanner were further optimized. The polarizer was moved to the in vivo suite, where it was positioned carefully 7.63 m+0.5 cm from a small-animal horizontal bore, high field MRI (4.7T Bruker MRI scanner). An automated system was implemented, whereby the hyperpolarized solution was driven by remaining gas pressure in the reactor, through polyethelene (PE) tubing from the polarizer to an NMR-tube in a dual-tuned ^1H/^13C solenoid coil in the MR scanner; where after a precise interval (33 seconds) acquisition was triggered. The solution was then drained to permit successive experiments without coil repositioning.
Peak amplitude was quantified by comparison with the spectrum of ethanol (FIG. 16), using the equations described herein.

[2] = T1 decay of hyperpolarization (small angle FID series); format: physicochemical
[3] = 13C spin storage followed by refocused INEPT polarization transfer to 1H; format: physicochemical; conditions: for initial 13C polarization: 2.4 mL sample, polarizer at 1.76 mT; for T1 during 13C spin storage: FIG. 20 samples, […] succinate / 2.9 mM TFPP; for 13C polarization after storage: after 70 s (succinate) or 24 s (TFPP), 12° excitation pulse; for 13C polarization after storage / net 1H NMR signal enhancement / final 13C signal enhancement: 4.7 T; for net 1H NMR signal enhancement: after refocused INEPT; for final 13C signal enhancement: after storage; for increase of overall sensitivity by proton detection: factor versus hyperpolarized 13C detection; for polarization transfer efficiency 13C to 1H: refocused INEPT
Source text: Specifically, the present subject matter hyperpolarized the ^13C site of two well studied molecules, 1-^13C-succinate-d2 and 2,2,3,3-tetrafluoropropyl 1-^13C-propionate-d3 (TFPP), by […].
Hyperpolarization was then kept on ^13C for 70 s. During this time, the polarized sample was transferred from a low magnetic field polarizer operating at 1.76 mT to 4.7 T animal MR scanner. […] Then the refocused INEPT pulse sequence^10 with τINEPT=34 ms and τrefocus=32 ms (FIG. 19) was used to transfer polarization from ^13C to protons within 1-^13C-succinate-d2 (FIG. 20A and FIG. 20B). […] The delays of the refocused INEPT were τINEPT=20 ms and τrefocus=16 ms.

rat brain = conditions: rapid ante-grade injection into common carotid artery, 1 mL, overlaid on 1H MRI

Compound | initial 13C polarization [3] | T1 during 13C spin storage [3] | 13C polarization after storage [3] | net 1H NMR signal enhancement [3] | final 13C signal enhancement [3] | increase of overall sensitivity by proton detection [3] | polarization transfer efficiency 13C to 1H [3] | other results
O=C(O)CCC(=O)O [1-^13C-SUCC-d2,3, 1-^13C-succinate-d2,3] | 10.7% | 105 s | 5.5% | 1,350 fold | 13,500 fold | 6.5 | 41% | effect of concentration on level of hyperpolarization ([1]; 1.65-2.89 mM in water, 0.96-2.93 mM in D2O): No effect; 13C signal enhancement at the point of measurement ([1]; 4.7 T, 33 s after production): 15,900 fold; PHP^t=0 average nascent polarization, stated in H2O ([1]; 16 experiments, in H2O before B1 calibration as printed): 15.3 ±1.9%; polarization at the point of measurement in water ([1]; H2O, mean delay 33 s): 5.4 ±1.3%; 13C signal enhancement (nascent) [1]: 49,000 fold and 37,400 ±4,600 fold; 13C signal enhancement (nascent) ([1]; listed as 13C succinate): 47,000 fold; 13C polarization achieved (maximal) ([1]; listed as 1-^13C succinate): 18%; 13C polarization achieved (maximal) ([1]; listed as 13C succinate): 19%; T1 of hyperpolarized 13C signal in D2O ([2]; D2O, pH 3, B0=4.7 T, N=4): 40 ± 2 s; T1 of hyperpolarized 13C signal in H2O ([2]; H2O, pH 3, B0=4.7 T, N=3, 1-3 mM SUC, 2.5 mM catalyst): 27 ± 3 s; T1 when buffered to physiological pH ([2]; buffered to pH 7 immediately before detection, preliminary): ~50 s; distribution of 13C image signal in vivo (rat brain): appeared in the anatomical distribution coincident with the rat brain
CC[13C](=O)OCCO [HEP, reference compound] | – | – | – | – | – | – | – | T1 decay time in D2O ([2]; D2O, pH 7, B0=4.7 T): 70 s; T1 decay time in H2O ([2]; H2O, pH 7, B0=4.7 T): 50 s
[2H]C([2H])C([2H])[13C](=O)OCC(F)(F)C(F)F (stereo not shown) [TFPP, 2,2,3,3-tetrafluoropropyl 1-^13C-propionate-d3] | 14% | 67 s | 9.5% | 2,930 fold | 23,300 fold | 7.9 | 50% and 51% | –
